From ChEMBL document CHEMBL3991601, “The target landscape of clinical kinase drugs” (Science, 2017) come the findings set out here.

Activity calls are given as the source filed them.

The target of assay [1] is Mitogen-activated protein kinase 3 (Homo sapiens, UniProt P27361).
The target of assay [2] is T1, ATP-dependent RNA helicase DDX42 (Homo sapiens, UniProt Q86XP3).
T1 sequence (Q86XP3 whole entry): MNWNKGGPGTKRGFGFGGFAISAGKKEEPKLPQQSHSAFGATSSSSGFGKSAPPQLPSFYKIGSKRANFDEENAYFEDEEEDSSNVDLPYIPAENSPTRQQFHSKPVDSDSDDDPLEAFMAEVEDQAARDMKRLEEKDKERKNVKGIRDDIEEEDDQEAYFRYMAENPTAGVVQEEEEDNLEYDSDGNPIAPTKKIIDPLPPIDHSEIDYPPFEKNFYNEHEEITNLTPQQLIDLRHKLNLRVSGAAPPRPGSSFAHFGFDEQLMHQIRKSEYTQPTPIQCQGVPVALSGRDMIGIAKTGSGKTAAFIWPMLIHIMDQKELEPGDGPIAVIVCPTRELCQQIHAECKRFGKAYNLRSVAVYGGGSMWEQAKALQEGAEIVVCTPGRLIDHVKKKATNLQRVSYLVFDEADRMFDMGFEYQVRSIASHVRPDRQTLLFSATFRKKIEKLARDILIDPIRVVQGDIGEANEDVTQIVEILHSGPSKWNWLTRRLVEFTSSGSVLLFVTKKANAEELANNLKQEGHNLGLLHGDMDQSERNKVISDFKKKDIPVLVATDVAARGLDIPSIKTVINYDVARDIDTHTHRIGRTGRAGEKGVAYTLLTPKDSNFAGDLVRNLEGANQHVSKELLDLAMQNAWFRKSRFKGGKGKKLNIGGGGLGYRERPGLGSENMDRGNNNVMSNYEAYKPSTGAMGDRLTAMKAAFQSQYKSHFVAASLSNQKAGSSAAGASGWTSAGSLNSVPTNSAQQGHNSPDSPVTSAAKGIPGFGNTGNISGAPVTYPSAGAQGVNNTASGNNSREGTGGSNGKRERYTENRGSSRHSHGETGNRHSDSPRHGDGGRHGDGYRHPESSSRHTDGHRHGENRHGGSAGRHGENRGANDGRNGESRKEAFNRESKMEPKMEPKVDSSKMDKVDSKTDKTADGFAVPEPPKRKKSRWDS

Assay [3] has as its target T2, Ephrin type-B receptor 2 (Homo sapiens, UniProt P29323).
T2 sequence (P29323 whole entry): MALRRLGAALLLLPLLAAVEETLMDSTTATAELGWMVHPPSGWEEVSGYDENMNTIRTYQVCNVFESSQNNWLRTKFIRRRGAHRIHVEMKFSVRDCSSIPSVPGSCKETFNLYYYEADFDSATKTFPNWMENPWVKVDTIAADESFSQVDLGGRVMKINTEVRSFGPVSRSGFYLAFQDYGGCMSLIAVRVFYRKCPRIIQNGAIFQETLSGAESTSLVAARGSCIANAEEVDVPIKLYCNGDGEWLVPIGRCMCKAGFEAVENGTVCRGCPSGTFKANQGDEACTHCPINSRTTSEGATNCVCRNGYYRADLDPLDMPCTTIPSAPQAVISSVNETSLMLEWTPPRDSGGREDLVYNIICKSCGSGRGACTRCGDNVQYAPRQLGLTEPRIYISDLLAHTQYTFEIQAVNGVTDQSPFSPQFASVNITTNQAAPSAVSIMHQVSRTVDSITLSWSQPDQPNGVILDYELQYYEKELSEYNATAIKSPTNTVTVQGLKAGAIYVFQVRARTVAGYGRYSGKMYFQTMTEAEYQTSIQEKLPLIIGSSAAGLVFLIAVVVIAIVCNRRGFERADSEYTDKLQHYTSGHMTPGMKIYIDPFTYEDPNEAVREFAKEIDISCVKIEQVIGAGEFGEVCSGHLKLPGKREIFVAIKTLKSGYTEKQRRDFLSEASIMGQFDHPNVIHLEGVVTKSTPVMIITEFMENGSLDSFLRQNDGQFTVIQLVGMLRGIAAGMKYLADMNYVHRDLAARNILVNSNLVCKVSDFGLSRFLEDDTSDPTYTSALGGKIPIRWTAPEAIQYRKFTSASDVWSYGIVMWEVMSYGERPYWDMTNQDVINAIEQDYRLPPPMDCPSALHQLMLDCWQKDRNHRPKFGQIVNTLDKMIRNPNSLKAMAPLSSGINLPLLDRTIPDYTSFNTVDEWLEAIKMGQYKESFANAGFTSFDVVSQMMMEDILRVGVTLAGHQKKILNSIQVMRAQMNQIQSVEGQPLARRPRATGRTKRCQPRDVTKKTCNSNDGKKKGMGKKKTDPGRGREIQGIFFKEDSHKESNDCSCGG

Assay [4] addresses Protein-tyrosine kinase 2-beta (Homo sapiens, UniProt Q14289).
The target in assay [5] is T3, Serine/threonine-protein kinase Nek2 (Homo sapiens, UniProt P51955).
T3 sequence (P51955 whole entry): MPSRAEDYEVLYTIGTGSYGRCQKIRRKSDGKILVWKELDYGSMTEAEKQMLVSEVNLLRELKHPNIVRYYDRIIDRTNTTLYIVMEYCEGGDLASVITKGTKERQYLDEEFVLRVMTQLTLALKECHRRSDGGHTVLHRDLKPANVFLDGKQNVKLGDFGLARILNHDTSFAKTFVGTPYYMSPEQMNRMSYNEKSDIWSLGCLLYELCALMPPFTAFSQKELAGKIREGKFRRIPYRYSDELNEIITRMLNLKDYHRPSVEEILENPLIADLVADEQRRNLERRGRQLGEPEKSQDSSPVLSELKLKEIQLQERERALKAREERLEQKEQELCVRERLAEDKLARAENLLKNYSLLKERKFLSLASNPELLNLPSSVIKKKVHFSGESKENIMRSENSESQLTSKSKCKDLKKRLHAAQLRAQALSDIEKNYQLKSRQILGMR

Assay [6] has as its target T4, Rab-like protein 3 (Homo sapiens, UniProt Q5HYI8).
T4 sequence (Q5HYI8 whole entry): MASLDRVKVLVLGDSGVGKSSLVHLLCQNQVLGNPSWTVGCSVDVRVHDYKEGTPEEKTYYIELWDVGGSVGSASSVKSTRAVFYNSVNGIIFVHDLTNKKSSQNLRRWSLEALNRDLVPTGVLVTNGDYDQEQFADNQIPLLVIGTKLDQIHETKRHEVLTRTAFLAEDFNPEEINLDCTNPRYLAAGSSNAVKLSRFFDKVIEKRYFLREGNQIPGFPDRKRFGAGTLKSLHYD
Note: in the data inactive means no Kd found up to 30 µM.

Protein-tyrosine kinase 2-beta, sequence (Q14289 whole entry): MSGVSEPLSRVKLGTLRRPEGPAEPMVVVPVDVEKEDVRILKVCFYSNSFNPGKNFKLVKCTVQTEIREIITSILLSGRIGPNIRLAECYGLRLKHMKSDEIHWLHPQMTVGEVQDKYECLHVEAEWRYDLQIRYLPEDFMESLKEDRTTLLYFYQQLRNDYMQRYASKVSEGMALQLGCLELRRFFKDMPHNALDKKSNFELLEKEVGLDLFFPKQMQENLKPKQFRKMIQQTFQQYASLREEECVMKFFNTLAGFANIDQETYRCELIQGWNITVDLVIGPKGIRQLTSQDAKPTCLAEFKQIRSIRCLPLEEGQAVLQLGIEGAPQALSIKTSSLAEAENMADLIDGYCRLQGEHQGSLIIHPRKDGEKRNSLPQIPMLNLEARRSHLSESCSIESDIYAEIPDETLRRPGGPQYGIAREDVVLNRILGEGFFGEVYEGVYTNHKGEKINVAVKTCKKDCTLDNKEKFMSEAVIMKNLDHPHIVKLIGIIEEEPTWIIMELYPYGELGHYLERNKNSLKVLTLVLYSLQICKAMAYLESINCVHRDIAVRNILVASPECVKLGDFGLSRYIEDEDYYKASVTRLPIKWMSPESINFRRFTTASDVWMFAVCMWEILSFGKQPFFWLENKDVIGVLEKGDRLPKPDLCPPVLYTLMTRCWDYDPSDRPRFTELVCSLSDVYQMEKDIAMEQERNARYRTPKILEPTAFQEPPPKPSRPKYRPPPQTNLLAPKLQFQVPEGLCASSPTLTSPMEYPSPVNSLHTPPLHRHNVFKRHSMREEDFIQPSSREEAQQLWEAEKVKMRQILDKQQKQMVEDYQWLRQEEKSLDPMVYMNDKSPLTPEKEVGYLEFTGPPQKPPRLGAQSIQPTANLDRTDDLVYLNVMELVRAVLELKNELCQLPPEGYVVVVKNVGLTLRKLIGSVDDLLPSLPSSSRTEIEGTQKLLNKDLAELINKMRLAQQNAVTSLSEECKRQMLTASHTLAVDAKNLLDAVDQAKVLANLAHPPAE
Mitogen-activated protein kinase 3, sequence (P27361 whole entry): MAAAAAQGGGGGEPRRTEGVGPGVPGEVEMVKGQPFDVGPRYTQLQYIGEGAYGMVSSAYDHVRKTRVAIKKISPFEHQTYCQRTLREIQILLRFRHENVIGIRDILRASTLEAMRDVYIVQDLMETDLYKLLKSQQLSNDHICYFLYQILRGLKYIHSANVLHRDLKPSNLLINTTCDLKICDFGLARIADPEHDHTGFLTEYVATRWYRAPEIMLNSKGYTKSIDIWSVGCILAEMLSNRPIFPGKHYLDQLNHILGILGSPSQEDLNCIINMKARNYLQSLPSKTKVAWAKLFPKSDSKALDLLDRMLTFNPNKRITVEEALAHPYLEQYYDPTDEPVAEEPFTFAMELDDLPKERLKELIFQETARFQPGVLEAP

By Kd is commonly meant the equilibrium constant for the complex coming apart. Consider `Cc1cc2c(F)c(Oc3ncnn4cc(OC[C@@H](C)OC(=O)[C@H](C)N)c(C)c34)ccc2[nH]1` [BRIVANIB ALANINATE], for which the Kd in assay [1], in assay [2], in assay [3], in assay [4], in assay [5] and in assay [6] was > 30 µM (inactive) each time.

Consider `C1=C/COCc2cc(ccc2OCCN2CCCC2)Nc2nccc(n2)-c2cccc(c2)COC/1` [PACRITINIB], for which the Kd in assay [1], in assay [2], in assay [3], in assay [4], in assay [5] and in assay [6] was > 30 µM (inactive) in each case.

Take `COc1cc2nccc(Oc3ccc(NC(=O)NC4CC4)c(Cl)c3)c2cc1C(N)=O` [LENVATINIB]: the Kd in assay [1], in assay [2], in assay [3], in assay [4], in assay [5] and in assay [6] was > 30 µM (inactive) each time.

For `CNC(=O)c1ccc(C)c(-n2c(C)cc(OCc3ccc(F)cc3F)c(Br)c2=O)c1` [PH-797804], the Kd in assay [1], in assay [2], in assay [3], in assay [4], in assay [5] and in assay [6] was > 30 µM (inactive) throughout.

For the compound `COc1cc2nccc(Oc3ccc(NC(=O)Nc4cc(C)on4)c(Cl)c3)c2cc1OC` [TIVOZANIB], the Kd was > 30 µM (inactive) in assay [1]; > 30 µM (inactive) in assay [2]; 0.448 µM (active) in assay [3]; > 30 µM (inactive) in assay [4]; > 30 µM (inactive) in assay [5]; > 30 µM (inactive) in assay [6].

Regarding `N[C@@H]1CCCN(c2c(/C=C3\SC(=O)NC3=O)cccc2-c2ccccc2)C1`, the Kd in assay [1], in assay [2], in assay [3], in assay [4], in assay [5] and in assay [6] was > 30 µM (inactive) in each case.

Regarding `COc1cc(N2CCC(N3CCN(C)CC3)CC2)ccc1Nc1ncnc(Nc2ccccc2S(=O)(=O)C(C)C)n1` [ASP-3026], the Kd is > 30 µM (inactive) in assay [1]; > 30 µM (inactive) in assay [2]; > 30 µM (inactive) in assay [3]; 0.273 µM (active) in assay [4]; > 30 µM (inactive) in assay [5]; > 30 µM (inactive) in assay [6].

As to `Cc1cc([C@@H](C)Nc2ccccc2C(=O)O)c2nc(N3CCOCC3)cc(=O)n2c1` [AZD-6482], the Kd in assay [1], in assay [2], in assay [3], in assay [4], in assay [5] and in assay [6] was > 30 µM (inactive) each time.

As for `CN1CCC(CNc2ccc3ncc(-c4cccc(OC(F)(F)F)c4)n3n2)CC1` [SGI-1776], the Kd in assay [1], in assay [2], in assay [3], in assay [4], in assay [5] and in assay [6] was > 30 µM (inactive) each time.

For the compound `CC(C)Nc1cc(-c2c[nH]c(C(=O)N[C@H](CO)c3cccc(Cl)c3)c2)c(Cl)cn1` [ULIXERTINIB], the Kd in assay [1] is 0.16 µM (active); in assay [2], > 30 µM (inactive); in assay [3], > 30 µM (inactive); in assay [4], > 30 µM (inactive); in assay [5] it was > 30 µM (inactive); in assay [6], > 30 µM (inactive).

As to `O=c1sn(-c2cccc3ccccc23)c(=O)n1Cc1ccccc1` [TIDEGLUSIB], the Kd in assay [1], in assay [2], in assay [3], in assay [4], in assay [5] and in assay [6] was > 30 µM (inactive) throughout.

On to `CNC(=O)c1cc(Oc2ccc(NC(=O)Nc3ccc(Cl)c(C(F)(F)F)c3)c(F)c2)ccn1` [REGORAFENIB], for which the Kd in assay [1], in assay [2], in assay [3], in assay [4], in assay [5] and in assay [6] was > 30 µM (inactive) each time.

With `Cc1ccc(-n2nc(C(C)(C)C)cc2NC(=O)NCc2cc(F)ccc2Oc2ccc3c(cnn3CCO)c2)cc1` [PEXMETINIB], the Kd is > 30 µM (inactive) in assay [1]; > 30 µM (inactive) in assay [2]; > 30 µM (inactive) in assay [3]; 30.4 µM (active) in assay [4]; > 30 µM (inactive) in assay [5]; > 30 µM (inactive) in assay [6].

As for `CCN1CCN(Cc2ccc(-c3cc4c(N[C@H](C)c5ccccc5)ncnc4[nH]3)cc2)CC1` [AEE-788], the Kd in assay [1], in assay [2], in assay [3], in assay [4], in assay [5] and in assay [6] was > 30 µM (inactive) each time.

Regarding `Cc1ccc(NC(=O)c2ccc(CN3CC[C@H](N(C)C)C3)c(C(F)(F)F)c2)cc1Nc1nccc(-c2cncnc2)n1` [BAFETINIB], the Kd in assay [1] is > 30 µM (inactive); in assay [2] it was > 30 µM (inactive); in assay [3], 53.2 µM (active); in assay [4] it was > 30 µM (inactive); in assay [5], > 30 µM (inactive); in assay [6] it was > 30 µM (inactive).

Turning to `CN(C)C(=O)c1cc2cnc(Nc3ccc(N4CCNCC4)cn3)nc2n1C1CCCC1` [RIBOCICLIB], the Kd in assay [1], in assay [2], in assay [3], in assay [4], in assay [5] and in assay [6] was > 30 µM (inactive) throughout.
